# Laboratory results published in patent US20090118366A1, “ORGANIC COMPOUNDS” (Nabriva Therapeutics Forschungs GmbH, priority 2007, published 2009).
# System: cryopreserved primary human hepatocytes
# Assay: Metabolic stability in cryopreserved primary human hepatocytes
# Type: in vitro ADME
# Conditions: 4 h incubation with human hepatocytes, compound concentration 5 μg/mL, 37° C., LC/MS
# Procedure: The metabolic stability for compounds of the present invention was determined by using cryopreserved primary human hepatocytes. 1×10^6 cells/mL were incubated in the absence and the presence of 5 and 25 μg/mL of the test compounds at 37° C., 5% CO2 for 4 hours, To evaluate the in vitro degradation under assay conditions, a sample of each test compound was incubated also in the absence of hepatocytes. The incubation was stopped by freezing the reaction mixture. After ultrafiltration and washing of the filter with acetonitrile, the sample solution was analyzed for parent compound disappearance or metabolite appearance using LC/MS (ion trap). The metabolic stability value corresponds to the detected parent compound in % after incubation.
substance,measurement,value
"14-O-{[(1R, 2R, 5S)-5-Amino-2-hydroxy-cyclohexylsulfanyl]-acetyl}-mutilin hydrochloride+(1s, 2S, 5R) diastereomer hydrochloride [Example 2]",parent compounds found (metabolic stability value),66%
"14-O-{[(1R, 3S)-3-Amino-cyclohexylsulfanyl]-acetyl}-mutilin hydrochloride and the (1S, S3R) diastereomer hydrochloride thereof",parent compounds found (metabolic stability value),24%
